What was measured:
[1] = test system: proximal tubule of the kidneys; test: comparative investigation of nephrotoxicity in healthy and tumour-bearing rats; type: in vivo
Text: In accordance with the set object, comparative investigations were investigated [sic] out with respect to effect on the nephrotoxicity in healthy and tumour-bearing rats after administration of ifosfamide on its own and in combination with L-carnitine. The doses for L-carnitine were selected such that the compound itself causes no side effects at all in the animals.

rats = conditions: L-carnitine together with ifosfamide; cited from earlier work
tumour-bearing rats = test: antitumour action of ifosfamide in combination with L-carnitine; type: in vivo; conditions: FIGS. 1 and 2

| Compound | effect on ifosfamide-induced damage to the proximal tubule of the kidney ([1]; simultaneous administration of L-carnitine 2×100 mg/kg i.v. with ifosfamide, rats) | clinical result (rats) | damage to the proximal tubule of the kidneys ([1]; ifosfamide on its own, healthy and tumour-bearing rats (both animal groups)) | antitumour action of ifosfamide (tumour-bearing rats) |
| --- | --- | --- | --- | --- |
| C[N+](C)(C)C[C@H](O)CC(=O)[O-] [L-carnitine] | antagonized significantly | decreased lethargy |  |  |
| O=P1(NCCCl)OCCCN1CCCl (stereo not shown) [ifosfamide] |  |  | clear dose-dependent damage | not affected |

Reference: patent US20030040507A1, “Pharmaceutical composition comprising ifosfamide and carnitine” (priority 1997, published 2003)
